# From ChEMBL document CHEMBL4334494, “Recent advances in the targeting of human DNA ligase I as a potential new strategy for cancer treatment” (Eur J Med Chem, 2019)
# pIC50: −log10 of the molar value.
# What was measured:
# MDA-MB-231 [1] = assay: Antiproliferative activity against human MDA-MB-231 cells at 10 uM after 48 hrs by MTT assay relative to control; assay type: functional; details: MDA-MB-231, 48 h
# DNA ligase 1 [2] = target: T1, DNA ligase 1 (Homo sapiens, UniProt P18858); assay: Inhibition of human DNA ligase 1 at 25 uM using nicked DNA as substrate after 30 mins relative to control
# T1 sequence (P18858 whole entry): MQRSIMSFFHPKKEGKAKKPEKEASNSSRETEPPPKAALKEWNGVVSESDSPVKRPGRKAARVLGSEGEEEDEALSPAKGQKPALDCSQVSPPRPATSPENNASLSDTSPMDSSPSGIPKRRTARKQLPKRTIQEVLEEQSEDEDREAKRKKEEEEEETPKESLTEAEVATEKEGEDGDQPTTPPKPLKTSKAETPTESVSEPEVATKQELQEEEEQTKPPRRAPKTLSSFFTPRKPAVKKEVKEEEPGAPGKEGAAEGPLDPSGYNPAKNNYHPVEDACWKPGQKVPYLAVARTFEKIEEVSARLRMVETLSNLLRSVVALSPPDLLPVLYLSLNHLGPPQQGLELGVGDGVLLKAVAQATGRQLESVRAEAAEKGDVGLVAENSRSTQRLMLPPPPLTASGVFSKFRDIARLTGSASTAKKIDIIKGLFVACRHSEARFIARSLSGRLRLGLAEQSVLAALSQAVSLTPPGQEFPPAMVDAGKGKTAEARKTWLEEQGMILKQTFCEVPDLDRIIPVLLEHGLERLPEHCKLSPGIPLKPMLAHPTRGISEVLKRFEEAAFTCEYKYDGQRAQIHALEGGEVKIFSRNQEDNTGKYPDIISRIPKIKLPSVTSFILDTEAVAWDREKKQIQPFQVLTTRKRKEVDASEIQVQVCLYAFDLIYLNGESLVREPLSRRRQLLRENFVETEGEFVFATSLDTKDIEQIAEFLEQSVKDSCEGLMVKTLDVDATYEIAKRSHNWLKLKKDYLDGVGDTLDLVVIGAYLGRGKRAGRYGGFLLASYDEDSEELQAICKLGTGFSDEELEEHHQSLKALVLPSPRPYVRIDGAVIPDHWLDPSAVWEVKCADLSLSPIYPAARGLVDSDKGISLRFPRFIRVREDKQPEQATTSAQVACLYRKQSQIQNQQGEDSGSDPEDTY
# DNA ligase 1 [3] = target: T1, DNA ligase 1; assay: Inhibition of human DNA ligase 1 at 50 uM using 52-mer DNA/25-mer DNA/27-mer DNA as substrate by fluorescence assay relative to control
# 4T1 = assay: Antiproliferative activity against mouse 4T1 cells after 48 hrs by MTT assay; assay type: functional, cell-based; details: 4T1, 48 h
# MDA-MB-231 [4] = assay: Antiproliferative activity against human MDA-MB-231 cells after 48 hrs by MTT assay; assay type: functional, cell-based; details: MDA-MB-231, 48 h
# DNA ligase 1 [5] = target: T1, DNA ligase 1; assay: Inhibition of human DNA ligase 1 using nicked DNA as substrate after 30 mins relative to control
# DNA ligase 1 [6] = target: T1, DNA ligase 1; assay: Inhibition of human DNA ligase 1 using 52-mer DNA/25-mer DNA/27-mer DNA as substrate by fluorescence assay
# DLD-1 = assay: Antiproliferative activity against human DLD1 cells after 48 hrs by MTT assay; assay type: functional, cell-based; details: DLD-1, 48 h
# HT-29 = assay: Antiproliferative activity against human HT-29 cells after 48 hrs by MTT assay; assay type: functional, cell-based; details: HT-29, 48 h
# HeLa = assay: Antiproliferative activity against human HeLa cells after 48 hrs by MTT assay; assay type: functional, cell-based
# DNA ligase 1 [7] = target: T1, DNA ligase 1; assay: Inhibition of human DNA ligase 1 expressed in Escherichia coli BL21DE3RP cells at 50 uM using 52-mer DNA/25-mer DNA/27-mer DNA as substrate after 30 mins by Cyanin3 dye-based fluorescence assay relative to control
# HCT-116 [8] = assay: Antiproliferative activity against human HCT116 cells after 48 hrs by MTT assay; assay type: functional, cell-based; details: HCT-116, 48 h
# HepG2 = assay: Antiproliferative activity against human HepG2 cells after 48 hrs by MTT assay; assay type: functional, cell-based; details: HepG2, 48 h
# HCT-116 [9] = assay: Antiproliferative activity against human HCT116 cells relative to control; assay type: functional
# DNA ligase 1 [10] = target: T1, DNA ligase 1; assay: Inhibition of human DNA ligase 1 expressed in Escherichia coli BL21 (DE3) cells using nicked DNA as substrate preincubated for 30 mins followed by substrate addition measured after 1 hr
compound,measurement,setting,value
COc1cc(/C=C/c2cc(=O)oc3c2ccc2c(OC)cccc23)cc(OC)c1,inhibition at 10 µM,MDA-MB-231 [1],> 50%
same,inhibition,DNA ligase 1 [2],< 50%
COc1ccc(NC(=S)NCC23C=CC(O2)C2C(=O)N(c4ccccc4)C(=O)C23)c([N+](=O)[O-])c1 (centres undefined),inhibition,DNA ligase 1 [3],56.2%
COc1cc(/C=C/c2cc(=O)oc3c2ccc2ccccc23)cc(OC)c1,pIC50,4T1,4.94
same,pIC50,MDA-MB-231 [4],4.89
same,inhibition,DNA ligase 1 [5],99.3%
same,inhibition at 10 µM,MDA-MB-231 [1],> 50%
same,inhibition,DNA ligase 1 [2],< 50%
CC1(C)CC[C@]2(C(=O)O)CC[C@]3(C)C(=CC[C@@H]4[C@@]5(C)CC[C@H](O)C(C)(C)[C@@H]5CC[C@]43C)[C@@H]2C1 [OLEANOLIC_ACID],pIC50,DNA ligase 1 [6],3.73
Cc1ccc(/C=C2\CN(C(=S)NC(=O)c3ccccc3)C/C(=C\c3ccc(C)cc3)C2=O)cc1,pIC50,4T1,> 5.00
same,pIC50,DLD-1,> 5.00
same,pIC50,MDA-MB-231 [4],> 5.00
same,pIC50,HT-29,> 5.00
same,pIC50,HeLa,> 5.00
same,inhibition,DNA ligase 1 [7],> 75%
same,pIC50,HCT-116 [8],> 5.00
same,pIC50,HepG2,> 5.00
COc1ccc(-c2cnc3c(O)nc(O)nc3n2)cc1,Activity,HCT-116 [9],70%
C[n+]1cc2c3c(ccc2c2ccc4cc5c(cc4c21)OCO5)OCO3 [SANGUINARINE NITRATE],pIC50,DNA ligase 1 [6],3.49
O=C1/C(=N\Nc2cn[nH]c(=O)c2Cl)c2cc(Br)ccc2N1c1ccc(Cl)cc1,pIC50,DNA ligase 1 [10],4.73 to 4.81
O=C1/C(=C/c2ccc(F)cc2)CN(C(=S)NC(=O)c2ccccc2)C/C1=C\c1ccc(F)cc1,pIC50,4T1,> 5.00
same,pIC50,DLD-1,> 5.00
same,pIC50,MDA-MB-231 [4],> 5.00
same,pIC50,HT-29,> 5.00
same,pIC50,HeLa,> 5.00
same,inhibition,DNA ligase 1 [7],> 75%
same,pIC50,HCT-116 [8],> 5.00
same,pIC50,HepG2,> 5.00
C[C@H]1[C@H](C)CC[C@]2(C(=O)O)CC[C@]3(C)C(=CC[C@@H]4[C@@]5(C)CC[C@H](O)C(C)(C)[C@@H]5CC[C@]43C)[C@H]12 [URSOLIC ACID],pIC50,DNA ligase 1 [6],3.58
O=c1c(O)c(-c2ccc(O)cc2O)oc2cc(O)cc(O)c12 [MORIN],pIC50,DNA ligase 1 [6],3.65
COc1cc2c(ccc3c4cc(OC)c(OC)cc4c[n+](C)c23)cc1O [FAGARONINE],pIC50,DNA ligase 1 [6],4.59
C/C=C/C=C1\C=Cc2c(C(=O)OC)coc(=O)c21 [FULVOPLUMIERIN],pIC50,DNA ligase 1 [6],3.45
O=C1/C(=N\Nc2cn[nH]c(=O)c2Cl)c2cc(Cl)ccc2N1c1ccc(F)cc1,pIC50,DNA ligase 1 [10],4.68
Cc1ccccc1/C=C1\CN(C(=S)NC(=O)c2ccccc2)C/C(=C\c2ccccc2C)C1=O,pIC50,4T1,> 5.00
same,pIC50,DLD-1,> 5.00
same,pIC50,MDA-MB-231 [4],> 5.00
same,pIC50,HT-29,> 5.00
same,pIC50,HeLa,> 5.00
same,inhibition,DNA ligase 1 [7],> 75%
same,pIC50,HCT-116 [8],> 5.00
same,pIC50,HepG2,> 5.00
CCOC(=O)N1CCN(CC(=O)Nc2cc(C)nc3ccc(NC(=O)Nc4ccc(C)c(Cl)c4)cc23)CC1,inhibition,DNA ligase 1 [3],98.6%
O=C1/C(=N\Nc2cn[nH]c(=O)c2Cl)c2cc(Br)ccc2N1c1ccccc1,pIC50,DNA ligase 1 [10],4.44
O=C1Nc2ccccc2/C1=N/Nc1cn[nH]c(=O)c1Cl,pIC50,DNA ligase 1 [10],4.86
COc1cccc(NC(=S)NCC23C=CC(O2)C2C(=O)N(c4ccccc4Cl)C(=O)C23)c1 (centres undefined),inhibition,DNA ligase 1 [3],22.4%
CCOC(=O)N1CCN(CC(=O)Nc2cc(C)nc3ccc(NC(=O)Nc4ccc(Cl)cc4)cc23)CC1,inhibition,DNA ligase 1 [3],1.5%
Cc1ccc(/C=C2\CN(C(=S)NCCc3ccccc3)C/C(=C\c3ccc(C)cc3)C2=O)cc1,pIC50,4T1,> 5.00
same,pIC50,DLD-1,> 5.00
same,pIC50,MDA-MB-231 [4],> 5.00
same,pIC50,HT-29,> 5.00
same,pIC50,HeLa,> 5.00
same,inhibition,DNA ligase 1 [7],> 75%
same,pIC50,HCT-116 [8],> 5.00
same,pIC50,HepG2,> 5.00
